{"source": "patent US9060997B2", "about": "“Antifolate compounds for the treatment of melanoma” (UNIVERSIDAD DE MURCIA, priority 2007, dated 2015)", "key": {"Caco-2 cells": {"tested_on": "Caco-2 cells", "experiment": "MTT cell proliferation assay, Caco-2", "type": "cell-based, human", "conditions": "Homo sapiens, 144 h; Caco-2, 6 days of treatment", "method": "Four human cancer cells lines (SkMel-28, MCF7, H1264 and Caco-2) were obtained from the American Type Tissue Culture Collection (ATCC) and were maintained in appropriate culture mediums supplemented with 10% fetal calf serum (FCS) and antibiotics, under standard tissue culture conditions (e.g. modified Eagle's medium (MEM) containing 1 mM sodium pyruvate and 10% fetal bovine serum (FES) under 5% CO2/95% air atmosphere.). Cell injury was evaluated by a colorimetric assay for mitochondrial function using the 3-(4,5-dimethylthiazolyl-2)-2,5-diphenyltetrazolium bromide (MTT) cell proliferation assay. For this assay cells were plated in a 96-well plate at a density of 1000 cells/well and grown until they reached 50-60% confluence. Human epidermal melanocytes (HeM) were supplied by Gentaur and were cultured in HAM-F10 medium supplemented with 10% FCS, antibiotics and the human melanocyte growth supplement (Gentaur)."}, "[1]": {"tested_on": "MS, MAT1A, MAT2A, AHYC and DNMT1 mRNA", "experiment": "Methionine cycle and methylase gene expression in SkMel-28 (real-time PCR)", "type": "cell-based, human", "from_the_text": "Histograms compare the estimated relative levels of the mRNA with respect to that of β-actin. Values represent the number of copies of mRNA per each 1×10^6 copies of β-actin.\nPrimers were designer using Primer Express version 2.0 software (Applied Biosystems, Foster City, Calif.) and synthesized by Invitrogen. The sequence of the primers are as follow: MS (forward: 5′-[…]-[…]-3′; […]; MAT1A (forward: 5′-[…]-[…]; […]; The primers designed to amplify FRα cDNA were: FR1 (forward: 5′-[…]-[…]-3′); […]; cDNA samples (1 μL) were used for real-time PCR in a total volume of 20 μL using SYBR Green Reagent (Applied Biosystems) and specific primers on a 7500 Real Time PCR System of Applied Biosystems. The PCR amplification cycles included denaturation 95° C., 15 min; to activate HotStar Taq DNA polymerase and to minimize primer-dimer contribution), and amplification [over 40-50 cycles including denaturation (94° C.; 30 s), annealing (55° C.; 30 s), and extension (72° C.; 1 min)]. All PCR reactions were performed in triplicate and from at least two independent experiments. Non-RT control and negative control samples (without template) were processed in the same manner. The specificity of the amplification was verified by melting curve analysis for all samples, and occasionally by agarosa gel electrophoresis. Amplification of target gene sequences were compared against serial dilutions of know quantities of their purified cDNA fragments, and normalized to the abundance of the house-keeping gene β-actin."}, "B16 melanoma cells": {"tested_on": "B16 melanoma cells", "experiment": "Metastasis model, B16 cells injected into tail vein", "type": "in vivo, mouse", "conditions": "TMECG 20 mg/Kg/d plus Dipyridamol 10 mg/Kg/d intraperitoneal, 30 days, female mice", "method": "B16 melanoma cells were injected into the tail vein, allowing microtumours to develop (1 week), then, the animal were treated for 21 days with […]) plus Dipyridamol (10 mg/Kg/d) by intraperitoneal injection. The animals were sacrifice and lungs and liver analyzed for tumor growth. We have now increased the number of treated and control animals (treated 21 female mice compared with 21 control (untreated) females) and the time of treatment (30 days). […] 31)."}, "[2]": {"conditions": "SkMel-28, 50 μM, five days, versus untreated SkMel-28"}}, "data": [{"smiles": "COc1cc(C(=O)O[C@@H]2Cc3c(O)cc(O)cc3O[C@@H]2c2ccc(O)c(O)c2)cc(OC)c1OC", "note": "[TMECG, 3-O-(3,4,5-trimethoxybenzoyl)-(−)-epicatechin]", "values": [{"measurement": "IC50", "setting": "Caco-2 cells", "result": 33, "unit": "µM"}, {"measurement": "level of MAT1A mRNA", "setting": "[1]; [2]", "result": "essentially the some"}, {"measurement": "level of MAT2A mRNA", "setting": "[1]; [2]", "result": "slightly but significant increase"}, {"measurement": "DNMT1 mRNA", "setting": "[1]; SkMel-28, treated cells", "result": "recovered normal levels"}, {"measurement": "lung metastasis", "setting": "B16 melanoma cells", "result": "reduction on lung metastasis"}]}]}
